Data: patent US20100286145A1, “ISOPHTHALAMIDE DERIVATIVES INHIBITING BETA-SECRETASE ACTIVITY” (CoMentis, Inc., priority 2007, published 2010)
Like-named read-outs stand apart in the source and are kept apart here.

Legend:
[1] = tested on: Aβ production in Chinese hamster ovary cells that over-express human APP695 with the London and Swedish mutations; assay: Cellular Aβ IC50 determination (Aβ40 sandwich ELISA); format: cell-based; details: Cricetulus griseus
In short: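 CHO cells overexpressing human APP695 with London and Swedish mutations, seeded at 10% confluency, treated with compounds up to about 4 μM final (0.4% DMSO). Secreted Aβ40 measured by sandwich ELISA relative to control and fitted to a 4-parameter IC50 model.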

memapsin 2 = memapsin 2 (Homo sapiens, UniProt P56817); assay: Inhibition of memapsin 2 beta-secretase activity (fluorogenic substrate FS-2); format: biochemical; details: memapsin 2, pH 4, 37° C., fluorogenic substrate FS-2; read-out: M2Ki
In short: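 Memapsin 2 pre-incubated 20 min with compound at pH 4, 37° C, then FS-2 substrate (MCA-SEVNLDAEFK-DNP, APP Swedish cleavage site) added. Rate of fluorescence increase compared with uninhibited controls, fitted to a tight-binding inhibition model.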

[2] = cellular Aβ production, read-out: IC50

memapsin 2, sequence (P56817 46-501): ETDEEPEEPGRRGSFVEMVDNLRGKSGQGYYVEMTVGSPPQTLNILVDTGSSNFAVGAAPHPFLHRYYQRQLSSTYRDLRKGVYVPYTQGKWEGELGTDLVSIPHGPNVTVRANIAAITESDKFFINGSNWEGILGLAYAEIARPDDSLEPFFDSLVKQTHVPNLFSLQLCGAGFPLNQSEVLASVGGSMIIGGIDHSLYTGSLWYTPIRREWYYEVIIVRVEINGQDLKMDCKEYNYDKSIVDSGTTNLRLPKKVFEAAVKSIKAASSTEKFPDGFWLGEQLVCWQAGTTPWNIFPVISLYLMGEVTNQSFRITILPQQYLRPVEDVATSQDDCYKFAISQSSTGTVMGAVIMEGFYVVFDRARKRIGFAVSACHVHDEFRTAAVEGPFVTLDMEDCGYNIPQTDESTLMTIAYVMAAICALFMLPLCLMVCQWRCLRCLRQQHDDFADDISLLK

| SMILES | IC50 [1, 2] | Ki (memapsin 2) | IC50 [1] |
| --- | --- | --- | --- |
| Cc1csc(CN(C)C(=O)c2ccc(C)c(C(=O)N[C@@H](Cc3ccccc3)[C@H](O)CNCc3cncc(C(C)C)c3)c2)n1 [Compound 249, N3-((2S,3R)-3-hydroxy-4-((5-isopropylpyridin-3-yl)methylamino)-1-phenylbutan-2-yl)-N1,4-dimethyl-N1-((4-methylthiazol-2-yl)methyl)isophthalamide] | > 5000 nM | > 501 nM | – |
| Cc1csc(CN(C)C(=O)c2cc(C(=O)N[C@@H](Cc3ccccc3)[C@H](O)CNCc3cncc(C(C)(C)F)c3)cc(-n3cccc3)c2)n1 [Compound 250, N1-((2S,3R)-4-((5-(2-fluoropropan-2-yl)pyridin-3-yl)methylamino)-3-hydroxy-1-phenylbutan-2-yl)-N3-methyl-N3-((4-methylthiazol-2-yl)methyl)-5-(1H-pyrrol-1-yl)isophthalamide] | < 1000 nM | < 300 nM | – |
| CNS(=O)(=O)c1cc(CNC[C@@H](O)[C@H](Cc2ccccc2)NC(=O)c2cccc(C(=O)N(C)Cc3nc(C)cs3)c2)cc(C(C)C)c1 [Compound 251, N1-((2S,3R)-3-hydroxy-4-(3-isopropyl-5-(N-methylsulfamoyl)benzylamino)-1-phenylbutan-2-yl)-N3-methyl-N3-((4-methylthiazol-2-yl)methyl)isophthalamide] | < 1000 nM | < 300 nM | – |
| Cc1csc(CN(C)C(=O)c2cc(C(=O)N[C@@H](Cc3ccccc3)[C@H](O)CNCc3cncc(C(C)C)c3)cc(-c3ccco3)c2)n1 [Compound 252, 5-(furan-2-yl)-N1-((2S,3R)-3-hydroxy-4-((5-isopropylpyridin-3-yl)methylamino)-1-phenylbutan-2-yl)-N3-methyl-N3-((4-methylthiazol-2-yl)methyl)isophthalamide] | < 1000 nM | < 300 nM | – |
| Cc1csc(CN(C)C(=O)c2cc(C(=O)N[C@@H](Cc3ccccc3)[C@H](O)CNCc3cncc(C(C)(F)F)c3)cc(N(C)C)c2)n1 [Compound 253, N1-((2S,3R)-4-((5-(1,1-difluoroethyl)pyridin-3-yl)methylamino)-3-hydroxy-1-phenylbutan-2-yl)-5-(dimethylamino)-N3-methyl-N3-((4-methylthiazol-2-yl)methyl)isophthalamide] | < 1000 nM | < 300 nM | – |
| Cc1csc(CN(C)C(=O)c2cc(C(=O)N[C@@H](Cc3ccccc3)[C@H](O)CNCc3cccc(C(F)(F)F)c3)cc(N(C)C)c2)n1 [Compound 254, 5-(dimethylamino)-N1-((2S,3R)-3-hydroxy-1-phenyl-4-(3-(trifluoromethyl)benzylamino)butan-2-yl)-N3-methyl-N3-((4-methylthiazol-2-yl)methyl)isophthalamide] | < 1000 nM | < 300 nM | – |
| COP(=O)(OC)Oc1cc(CNC[C@@H](O)[C@H](Cc2ccccc2)NC(=O)c2cccc(C(=O)N(C)Cc3nc(C)cs3)c2)cc(C(C)C)c1 [Compound 255, 3-(((2R,3S)-2-hydroxy-3-(3-(methyl((4-methylthiazol-2-yl)methyl)carbamoyl)benzamido)-4-phenylbutylamino)methyl)-5-isopropylphenyl dimethyl phosphate] | – | < 300 nM | < 1000 nM |
| Cc1nnc(CN(C)C(=O)c2cccc(C(=O)N[C@@H](Cc3ccccc3)[C@H](O)CNCc3cncc(C(C)C)c3)c2)o1 [Compound 256, N1-((2S,3R)-3-hydroxy-4-((5-isopropylpyridin-3-yl)methylamino)-1-phenylbutan-2-yl)-N3-methyl-N3-((5-methyl-1,3,4-oxadiazol-2-yl)methyl)isophthalamide] | 1000 to 5000 nM | > 501 nM | – |
| Cc1csc(CN(C)C(=O)c2cc(C(=O)N[C@@H](Cc3ccccc3)[C@H](O)CNCc3cncc(C(C)C)c3)cc(-c3cccn3C)c2)n1 [Compound 257, N1-((2S,3R)-3-hydroxy-4-((5-isopropylpyridin-3-yl)methylamino)-1-phenylbutan-2-yl)-N3-methyl-5-(1-methyl-1H-pyrrol-2-yl)-N3-((4-methylthiazol-2-yl)methyl)isophthalamide] | < 1000 nM | < 300 nM | – |
| Cc1csc(CN(C)C(=O)c2cc(C(=O)N[C@@H](Cc3ccccc3)[C@H](O)CNCc3cncc(C(C)C)c3)cc(-c3cnn(C)c3)c2)n1 [Compound 258, N1-((2S,3R)-3-hydroxy-4-((5-isopropylpyridin-3-yl)methylamino)-1-phenylbutan-2-yl)-N3-methyl-5-(1-methyl-1H-pyrazol-4-yl)-N3-((4-methylthiazol-2-yl)methyl)isophthalamide] | < 1000 nM | < 300 nM | – |
| Cc1csc(CN(C)C(=O)c2cc(C(=O)N[C@@H](Cc3ccccc3)[C@H](O)CNCc3cncc(C(C)C)c3)cc(-c3ccc(F)nc3)c2)n1 [Compound 259, 5-(6-fluoropyridin-3-yl)-N1-((2S,3R)-3-hydroxy-4-((5-isopropylpyridin-3-yl)methylamino)-1-phenylbutan-2-yl)-N3-methyl-N3-((4-methylthiazol-2-yl)methyl)isophthalamide] | < 1000 nM | < 300 nM | – |
| COc1cccc([C@H](C)NC[C@@H](O)[C@H](Cc2ccccc2)NC(=O)c2cc(C(=O)N(C)Cc3nc(C)cs3)cc(N(C)C)c2)c1 [Compound 260, 5-(dimethylamino)-N1-((2S,3R)-3-hydroxy-4-((S)-1-(3-methoxyphenyl)ethylamino)-1-phenylbutan-2-yl)-N3-methyl-N3-((4-methylthiazol-2-yl)methyl)isophthalamide] | < 1000 nM | 301 to 500 nM | – |
| Cc1csc(CN(C)C(=O)c2cccc(C(=O)N[C@@H](Cc3ccccc3)[C@H](O)CNCc3cc(Cl)ccc3F)c2)n1 [Compound 261, N1-((2S,3R)-4-(5-chloro-2-fluorobenzylamino)-3-hydroxy-1-phenylbutan-2-yl)-N3-methyl-N3-((4-methylthiazol-2-yl)methyl)isophthalamide] | < 1000 nM | < 300 nM | – |

The next lines start with results.

| IC50 [1, 2] | Ki (memapsin 2) | SMILES | IC50 [1] |
| --- | --- | --- | --- |
| < 1000 nM | < 300 nM | COc1cccc(CNC[C@@H](O)[C@H](Cc2ccccc2)NC(=O)c2cc(C(=O)N(C)Cc3nc(C)cs3)cc(-n3ccnc3)c2)c1 [Compound 262, N1-((2S,3R)-3-hydroxy-4-(3-methoxybenzylamino)-1-phenylbutan-2-yl)-5-(1H-imidazol-1-yl)-N3-methyl-N3-((4-methylthiazol-2-yl)methyl)isophthalamide] | – |
| < 1000 nM | < 300 nM | Cc1csc(CN(C)C(=O)c2cc(C(=O)N[C@@H](Cc3ccccc3)[C@H](O)CNCc3cncc(C(C)C)c3)cc(-c3ncc[nH]3)c2)n1 [Compound 263, N1-((2S,3R)-3-hydroxy-4-((5-isopropylpyridin-3-yl)methylamino)-1-phenylbutan-2-yl)-5-(1H-imidazol-2-yl)-N3-methyl-N3-((4-methylthiazol-2-yl)methyl)isophthalamide] | – |
| < 1000 nM | < 300 nM | CC(=O)c1cncc(CNC[C@@H](O)[C@H](Cc2ccccc2)NC(=O)c2cccc(C(=O)N(C)Cc3nc(C)cs3)c2)c1 [Compound 264, N1-((2S,3R)-4-((5-acetylpyridin-3-yl)methylamino)-3-hydroxy-1-phenylbutan-2-yl)-N3-methyl-N3-((4-methylthiazol-2-yl)methyl)isophthalamide] | – |
| < 1000 nM | < 300 nM | Cc1csc(CN(C)C(=O)c2cccc(C(=O)N[C@@H](Cc3ccccc3)[C@H](O)CNCc3cc(Br)cc(C(F)(F)F)c3)c2)n1 [Compound 265, N1-((2S,3R)-4-(3-bromo-5-(trifluoromethyl)benzylamino)-3-hydroxy-1-phenylbutan-2-yl)-N3-methyl-N3-((4-methylthiazol-2-yl)methyl)isophthalamide] | – |
| < 1000 nM | < 300 nM | Cc1csc(CN(C)C(=O)c2cccc(C(=O)N[C@@H](Cc3ccccc3)[C@H](O)CNCc3cc(C#N)cc(C(F)(F)F)c3)c2)n1 [Compound 266, N1-((2S,3R)-4-(3-cyano-5-(trifluoromethyl)benzylamino)-3-hydroxy-1-phenylbutan-2-yl)-N3-methyl-N3-((4-methylthiazol-2-yl)methyl)isophthalamide] | – |
| < 1000 nM | < 300 nM | Cc1csc(CN(C)C(=O)c2cccc(C(=O)N[C@@H](Cc3ccccc3)[C@H](O)CNCc3cccc(-c4ccccc4)c3)c2)n1 [Compound 267, N1-((2S,3R)-4-(biphenyl-3-ylmethylamino)-3-hydroxy-1-phenylbutan-2-yl)-N3-methyl-N3-((4-methylthiazol-2-yl)methyl)isophthalamide] | – |
| < 1000 nM | < 300 nM | Cc1csc(CN(C)C(=O)c2cc(C(=O)N[C@@H](Cc3ccccc3)[C@H](O)CNCc3cccc(C(C)(C)C)c3)cc(N(C)C)c2)n1 [Compound 268, N1-((2S,3R)-4-(3-tert-butylbenzylamino)-3-hydroxy-1-phenylbutan-2-yl)-5-(dimethylamino)-N3-methyl-N3-((4-methylthiazol-2-yl)methyl)isophthalamide] | – |
| < 1000 nM | < 300 nM | C=C(C)c1cc(CNC[C@@H](O)[C@H](Cc2ccccc2)NC(=O)c2cccc(C(=O)N(C)Cc3nc(C)cs3)c2)c[n+]([O-])c1 [Compound 269, 3-(((2R,3S)-2-hydroxy-3-(3-(methyl((4-methylthiazol-2-yl)methyl)carbamoyl)benzamido)-4-phenylbutylamino)methyl)-5-(prop-1-en-2-yl)pyridine 1-oxide] | – |
| < 1000 nM | < 300 nM | Cc1csc(CN(C)C(=O)c2cc(C(=O)N[C@@H](Cc3ccccc3)[C@H](O)CNCc3cncc(C(C)(C)F)c3)cc(-c3ccoc3)c2)n1 [Compound 270, N1-((2S,3R)-4-((5-(2-fluoropropan-2-yl)pyridin-3-yl)methylamino)-3-hydroxy-1-phenylbutan-2-yl)-5-(furan-3-yl)-N3-methyl-N3-((4-methylthiazol-2-yl)methyl)isophthalamide] | – |
